Data reported in ChEMBL document CHEMBL1134916, “Synthesis and evaluation of 7-substituted-3-cyclobutylamino-4H-1,2,4-benzothiadiazine-1,1-dioxide derivatives as K(ATP) channel agonists” (Bioorg Med Chem Lett, 2002).

How the values were obtained:
[1] = Acid dissociation constant was determined; format: ADME
[2] = molecular target: T1, Sulfonylurea receptor 1, Kir6.2 (Homo sapiens, UniProt Q09428+Q14654); assay: Inhibition of Beta-cell KATP channel; format: functional
[3] = molecular target: Sulfonylurea receptor 1, Kir6.2 (Homo sapiens) (UniProt Q14654+Q09428); assay: Percentage of maximal agonistic response of Beta-cell KATP channel as compared to diazoxide (50 uM); format: functional
[4] = molecular target: T1, Sulfonylurea receptor 1, Kir6.2; assay: Negative log EC50 for Beta-cell KATP channel; format: functional

T1 sequence (Q14654 whole entry): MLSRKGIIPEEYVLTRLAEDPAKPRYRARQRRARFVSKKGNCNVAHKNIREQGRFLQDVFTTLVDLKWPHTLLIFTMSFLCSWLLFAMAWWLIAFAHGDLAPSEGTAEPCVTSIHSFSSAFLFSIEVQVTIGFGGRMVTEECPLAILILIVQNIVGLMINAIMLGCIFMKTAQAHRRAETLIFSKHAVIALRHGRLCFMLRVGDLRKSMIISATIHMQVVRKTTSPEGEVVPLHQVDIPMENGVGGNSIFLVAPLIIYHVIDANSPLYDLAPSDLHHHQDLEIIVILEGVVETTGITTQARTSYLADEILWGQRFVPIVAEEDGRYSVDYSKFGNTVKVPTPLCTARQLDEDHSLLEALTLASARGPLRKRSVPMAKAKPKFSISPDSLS
T1 sequence (Q09428 whole entry): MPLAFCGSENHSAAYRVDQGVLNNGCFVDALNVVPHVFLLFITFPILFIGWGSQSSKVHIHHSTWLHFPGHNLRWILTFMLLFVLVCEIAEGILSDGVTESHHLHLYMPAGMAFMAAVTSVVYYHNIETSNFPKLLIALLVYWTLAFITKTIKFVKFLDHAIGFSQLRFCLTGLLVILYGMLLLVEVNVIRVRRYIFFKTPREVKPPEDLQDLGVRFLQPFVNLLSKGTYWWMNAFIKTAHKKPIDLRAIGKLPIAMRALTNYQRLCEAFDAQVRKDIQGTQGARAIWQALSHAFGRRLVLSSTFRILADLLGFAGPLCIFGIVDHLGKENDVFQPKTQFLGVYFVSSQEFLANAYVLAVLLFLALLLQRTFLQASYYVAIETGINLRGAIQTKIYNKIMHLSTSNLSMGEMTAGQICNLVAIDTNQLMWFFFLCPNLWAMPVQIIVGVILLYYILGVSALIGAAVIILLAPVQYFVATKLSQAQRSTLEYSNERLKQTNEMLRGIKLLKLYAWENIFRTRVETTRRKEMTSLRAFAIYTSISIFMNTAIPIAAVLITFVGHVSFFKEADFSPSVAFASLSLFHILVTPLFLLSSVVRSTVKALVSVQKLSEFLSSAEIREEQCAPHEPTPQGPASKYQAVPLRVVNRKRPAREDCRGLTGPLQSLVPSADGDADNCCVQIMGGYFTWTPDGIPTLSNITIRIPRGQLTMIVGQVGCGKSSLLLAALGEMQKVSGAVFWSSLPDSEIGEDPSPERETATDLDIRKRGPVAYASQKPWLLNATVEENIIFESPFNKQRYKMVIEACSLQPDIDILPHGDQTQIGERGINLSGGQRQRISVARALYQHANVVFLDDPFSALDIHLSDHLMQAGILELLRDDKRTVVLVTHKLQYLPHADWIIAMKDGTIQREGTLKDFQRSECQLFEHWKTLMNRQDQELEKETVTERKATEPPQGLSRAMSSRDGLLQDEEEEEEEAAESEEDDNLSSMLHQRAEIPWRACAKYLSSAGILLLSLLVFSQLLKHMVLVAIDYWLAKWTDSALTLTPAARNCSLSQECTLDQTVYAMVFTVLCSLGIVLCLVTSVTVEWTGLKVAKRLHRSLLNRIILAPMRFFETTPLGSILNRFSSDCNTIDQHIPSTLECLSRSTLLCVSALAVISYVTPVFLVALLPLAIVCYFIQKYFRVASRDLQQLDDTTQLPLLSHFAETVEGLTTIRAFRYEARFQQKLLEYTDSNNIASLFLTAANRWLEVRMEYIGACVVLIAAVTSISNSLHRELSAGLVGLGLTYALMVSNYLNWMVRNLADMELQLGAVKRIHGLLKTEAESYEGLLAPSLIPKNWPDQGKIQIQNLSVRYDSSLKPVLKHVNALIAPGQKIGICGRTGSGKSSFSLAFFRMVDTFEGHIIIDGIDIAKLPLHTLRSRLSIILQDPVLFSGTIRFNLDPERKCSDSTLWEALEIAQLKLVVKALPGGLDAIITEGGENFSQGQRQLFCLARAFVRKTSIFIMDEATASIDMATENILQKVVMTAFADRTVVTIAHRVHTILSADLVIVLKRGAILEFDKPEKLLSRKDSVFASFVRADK

pKa [1]	EC50 [2] [µM]	Max [3] [%]	EC50 [4] [µM]	Structure (SMILES)
7.89	0.53	30.9		O=[N+]([O-])c1ccc2c(c1)S(=O)(=O)NC(NC1CCC1)=N2
	3.87	122	3.98	COc1ccc2c(c1)S(=O)(=O)NC(NC1CCC1)=N2
	31	96.9	31.6	Nc1ccc2c(c1)S(=O)(=O)NC(NC1CCC1)=N2
		100		CC1=Nc2ccc(Cl)cc2S(=O)(=O)N1
9.36	0.196	137	0.2	O=S1(=O)N=C(NC2CCC2)Nc2ccc(Cl)cc21
9.57	0.356	136	0.398	O=S1(=O)NC(NC2CCC2)=Nc2ccc(F)cc21
	1.96	109	2	O=S1(=O)N=C(NC2CCC2)Nc2ccccc21
8.62				CC1=NS(=O)(=O)c2cc(Cl)ccc2N1 [DIAZOXIDE]
